Entries after “also recorded” stand apart in the source; their conditions may differ.
What was measured:
Serum stability testing = type: in vitro ADME; settings: 37° C., 24 hours, HPLC
Method: Serum stability testing of 7-^123I-O-Nec-1. Serum stability testing was carried out by mixing 25 μL of 7-^123I-O-Nec-1 (5) and 100 μL of rat serum at 37 ° C. for 24 hours. […] cold EtOH was added afterwards, and the mixture was centrifuged at 2500 ×g at 4° C. for 15 minutes to precipitate proteins. The supernatant was injected into HPLC.

[1] = Biodistribution in C57BL/6 mice; type: in vivo; settings: for organ uptake: Blood / organ uptake: Brain / organ uptake: Femur / organ uptake: Heart / organ uptake: Intestine / organ uptake: Kidney / organ uptake: Liver / organ uptake: Lung / organ uptake: Muscle / organ uptake: Ovaries/testis / organ uptake: Spleen / organ uptake: Stomach / organ uptake: Thyroid / organ uptake: Urine: female C57BL/6 mice, i.v. 5.3-6.7 MBq, mean ± SD, n = 3
Method: (§1) Biodistribution studies were carried out on C57BL/6 mice weighing 19-21 g and Sprague Dawley rats weighing 400-560 g (Charles River Laboratories, Mass., USA). On the day of experimentation, the animals were anesthetized and maintained under isofluorane during the injection. A tail vein catheter was inserted, 5.3-6.7 MBq of 7-^123I-O-Nec-1 was administered to the mice and 3.1-3.3 MBq of 7-^123I-O-Nec-1 was injected into the rats. The animals were sacrificed at 1 hr or 2 hr post injection (p.i.) (n=3 per group). The heart, liver, kidney, muscle, femur, spleen, blood, brain, intestine, lung, stomach, urine/bladder, ovaries/testes and thyroid were extracted, weighed and analyzed for total gamma counts (Wizard 2 2480 Automatic Gamma Counter, Perkin Elmer). The tissue uptake was decay corrected, and the percentage of injected dose per gram (% ID/g) was calculated.

[2] = Biodistribution in Sprague-Dawley rats; type: in vivo
Method: as §1

[3] = system: atherosclerotic lesions in ApoE−/− mice; assay: Ex vivo autoradiography of aorta, en face and Oil Red O comparison; type: in vivo, mouse; settings: for localization of the tracer in the aorta (in words): ApoE−/− mice with established lesions, 2 hours after i.v. injection, en face aortic arch; for correlation between lesion area measured by tracer autoradiography and ORO / en face (in words): ApoE−/− mice, ex vivo
Text: Radiochemistry and ex vivo autoradiography study with ApoE^−/− mice. The tracer ^123I-Nec-1 (7-^123I-Nec-1) was synthesized by a Cu(I) catalyzed direct halogen exchange reaction with the precursor 7-Br-Nec-1 and Na^123I. Eight week-old female apolipoprotein E knockout (Apo E^−/−) mice were purchased from Charles River Laboratories and fed either a chow or western diet (TD.10885, Harlan Laboratories) for 2 months (total n=6 mice). 7-^123I-O-Nec-1 (37.0-55.5 MBq) was administrated intravenously into the mice under anesthetic. After 2 hr, the mice were euthanized and perfused with PBS followed by 10% formalin via left ventricle cannulation. Aorta was dissected from heart at the base using a dissecting microscope following removal of surrounding fat and connective tissue. En face specimens were immediately exposed to super resolution phosphor screens in an autoradiography cassette. After overnight exposure at room temperature, the screens were scanned with a Cyclone Phosphor Imager (Perkin Elmer, Downers Grove, Ill.). Images were analyzed using OptiQuant™ 5.0 software. The regions of interest (ROI) were drawn around the lesions on the aortic arch, and the counts in Digital Light Unit (DLU) and surface areas in mm^2 were measured. The DLU was converted to activity in μCi using a set of calibration standards with known activities, which were exposed and scanned on the same screen used for the aorta samples, as previously described (Zhao et al, 2007; Matter et al., 2006). The percentage injected dose (% ID) was calculated from dividing the activity (pCi) of the lesion by the injected activity. Activity density in % ID/m^2 was calculated and normalized by animal body weight to get % ID×kg/m^2. The areas of the lesions and the whole aortic arch in mm^2 were also recorded using the OptiQuant™ 5.0 software, and the percentage of lesion within the area of the aorta vessel wall was calculated.
Ex vivo autoradiography study with ApoE^−/− mice. Eight week-old female apolipoprotein E knockout (Apo E^−/−) mice were purchased from Charles River Laboratories (Charles River, Canada) and fed either a chow or western diet (TD.10885, Harlan Laboratories) for 2 months (n=3 per group). […] 7-^123I-O-Nec-1 (37.0-55.5 MBq) was administrated intravenously into the mice under anesthetic. After 2 hr, the mice were euthanized in a CO2 chamber. Using a Gilson Minipuls 2 peristaltic pump, the mice were perfused with 20 mL phosphate buffered saline (PBS) followed by 10 mL of 10% formalin via left ventricle cannulation. Perfusate was drained from a cut within the right atrium. Aorta was dissected from heart at the base using a dissecting microscope following removal of surrounding fat and connective tissue. For en face experiments aortic tissues were flattened by a longitudinal cut through one side of the aortic wall cutting through the carotids and the innominant artery until the aorta was split forming a Y-shaped structure.
The uptake and distribution of the tracer on aortic tissue was studied using digital autoradiography method. En face specimens were immediately exposed to super resolution phosphor screens in a Fisher Biotech autoradiography cassette. After overnight exposure at room temperature, the screens were scanned with a Cyclone Phosphor Imager (Perkin Elmer, Downers Grove, Ill.). Images were analyzed using OptiQuant™ 5.0 software. The regions of interest (ROI) were drawn around the lesions on the aortic arch, and the counts in Digital Light Unit (DLU) and surface areas in mm^2 were measured. The DLU was converted to activity in pCi using a set of calibration standards with known activities, which were exposed and scanned on the same screen used for the aorta samples. The percentage injected dose (% ID) was calculated from dividing the activity (pCi) of the lesion by the injected activity. Activity density in % ID/m^2 was calculated and normalized by animal body weight to get % ID×kg/m^2. […]

[4] = male Sprague-Dawley rats, 2 hr p.i., i.v. 3.1-3.3 MBq, mean ± SD, n = 3

Compound: CN1C(=O)NC(Cc2c[nH]c3c([123I])cccc23)C1=O (centres unmarked) [7-^123I-O-Nec-1, 5-((7-lodo (^123I)-1H-indol-3-yl)methyl)-3-methylimidazolidine-2,4-dione]
- stability in rat serum (Serum stability testing): stable in serum, no de-iodination or degradation was found; also recorded: stable in vitro in serum
- clearance of the tracer (in words) ([1]; biodistribution in C57BL/6 mice, i.v.): fast renal and liver/gastrointestinal clearance; also recorded: excreted rapidly from the renal system
- organ uptake: Blood ([1]; 1 hr p.i.): 3.149 ± 0.547 % ID/g
- organ uptake: Brain ([1]; 1 hr p.i.): 0.429 ± 0.170 % ID/g
- organ uptake: Femur ([1]; 1 hr p.i.): 1.167 ± 0.214 % ID/g
- organ uptake: Heart ([1]; 1 hr p.i.): 1.868 ± 0.519 % ID/g
- organ uptake: Intestine ([1]; 1 hr p.i.): 16.578 ± 1.224 % ID/g
- organ uptake: Kidney ([1]; 1 hr p.i.): 4.296 ± 1.084 % ID/g
- organ uptake: Liver ([1]; 1 hr p.i.): 4.030 ± 0.824 % ID/g
- organ uptake: Lung ([1]; 1 hr p.i.): 3.248 ± 0.788 % ID/g
- organ uptake: Muscle ([1]; 1 hr p.i.): 0.859 ± 0.278 % ID/g
- organ uptake: Ovaries/testis ([1]; 1 hr p.i.): 2.349 ± 0.570 % ID/g
- organ uptake: Spleen ([1]; 1 hr p.i.): 2.657 ± 0.390 % ID/g
- organ uptake: Stomach ([1]; 1 hr p.i.): 19.294 ± 2.556 % ID/g
- organ uptake: Thyroid ([1]; 1 hr p.i.): 7.344 ± 1.469 % ID/g
- organ uptake: Urine ([1]; 1 hr p.i.): 103.153 ± 41.005 % ID/g
- organ uptake: Blood ([1]; 2 hr p.i.): 3.136 ± 1.024 % ID/g
- organ uptake: Brain ([1]; 2 hr p.i.): 0.640 ± 0.847 % ID/g
- organ uptake: Femur ([1]; 2 hr p.i.): 1.189 ± 0.205 % ID/g
- organ uptake: Heart ([1]; 2 hr p.i.): 1.405 ± 0.484 % ID/g
- organ uptake: Intestine ([1]; 2 hr p.i.): 25.573 ± 19.206 % ID/g
- organ uptake: Kidney ([1]; 2 hr p.i.): 3.841 ± 0.429 % ID/g
- organ uptake: Liver ([1]; 2 hr p.i.): 2.562 ± 0.916 % ID/g
- organ uptake: Lung ([1]; 2 hr p.i.): 2.975 ± 1.025 % ID/g
- organ uptake: Muscle ([1]; 2 hr p.i.): 0.723 ± 0.307 % ID/g
- organ uptake: Ovaries/testis ([1]; 2 hr p.i.): 1.462 ± 0.184 % ID/g
- organ uptake: Spleen ([1]; 2 hr p.i.): 2.173 ± 0.728 % ID/g
- organ uptake: Stomach ([1]; 2 hr p.i.): 25.711 ± 4.877 % ID/g
- organ uptake: Thyroid ([1]; 2 hr p.i.): 18.387 ± 14.764 % ID/g
- organ uptake: Urine ([1]; 2 hr p.i.): 80.627 ± 12.850 % ID/g
- in vivo de-iodination (in words) ([1]; normal C57BL/6 mice, thyroid and stomach uptake 1 hr to 2 hr p.i.): de-iodination over time; also recorded: some degree of in vivo de-iodination; also recorded: limited in vivo de-iodination
- clearance of the tracer (in words) ([2]; biodistribution in Sprague-Dawley rats, i.v., 2 hr p.i.): fast renal and liver/gastrointestinal clearance; also recorded: excreted rapidly from the renal system
- organ uptake: Blood [2, 4]: 0.153 ± 0.031 % ID/g
- organ uptake: Brain [2, 4]: 0.023 ± 0.004 % ID/g
- organ uptake: Femur [2, 4]: 0.052 ± 0.009 % ID/g
- organ uptake: Heart [2, 4]: 0.098 ± 0.007 % ID/g
- organ uptake: Intestine [2, 4]: 0.867 ± 0.062 % ID/g
- organ uptake: Kidney [2, 4]: 0.236 ± 0.016 % ID/g
- organ uptake: Liver [2, 4]: 0.226 ± 0.028 % ID/g
- organ uptake: Lung [2, 4]: 0.143 ± 0.013 % ID/g
- organ uptake: Muscle [2, 4]: 0.048 ± 0.005 % ID/g
- organ uptake: Ovaries/testis [2, 4]: 0.089 ± 0.009 % ID/g
- organ uptake: Spleen [2, 4]: 0.106 ± 0.009 % ID/g
- organ uptake: Stomach [2, 4]: 1.685 ± 0.395 % ID/g
- organ uptake: Thyroid [2, 4]: 1.407 ± 0.189 % ID/g
- organ uptake: Urine [2, 4]: 2.513 ± 0.282 % ID/g
- in vivo de-iodination (in words) ([2]; normal Sprague-Dawley rats): some degree of in vivo de-iodination
- aortic lesion uptake in HFD-fed ApoE−/− mice versus chow-fed ApoE−/− and control mice (in words) ([3]; 4 month old mice, 37.0-55.5 MBq i.v., 2 hr, n=3 per group): significantly higher tracer uptake
- lesion uptake in chow-fed ApoE−/− mice versus aortic arch uptake of control mice (in words) ([3]; 4 month old mice, 2 hr p.i., p=0.3): similar; also recorded: not statistically significant
- localization of the tracer in the aorta (in words) ([3]; listed as 123I-Nec-1): primarily localized to areas of plaque accumulation
- localization of the tracer in the aorta (in words) ([3]; listed as 123INec-1): specifically localizes to advanced atherosclerotic lesion areas
- correlation between lesion area measured by tracer autoradiography and ORO / en face (in words) [3]: good correlation
- correlation between lesion area measured by tracer autoradiography and ORO / en face (in words) ([3]; listed as 123I-Nec-1): significant correlation
